Laboratory results from publication PMC10814725, “In Vitro Anti-Inflammatory Study of Limonoids Isolated from Chisocheton Plants” (Current Issues in Molecular Biology, 2024).
Like-named read-outs stand apart in the source and are kept apart here.

Key:
Format in all cases: cell-based
[1] = Cell viability by CCK-8, HEK-Blue hTLR4 cells; conditions: human
Method: (§1) The viability of HEK-Blue^TM hTLR4, […], and THP-1 cells was evaluated using the Dojindo Cell Counting Kit-8 (CCK-8) according to the manufacturer’s instructions. The viability of HEK-Blue^TM hTLR4 and THP-1 cells was assessed under identical conditions to the corresponding assay treatments. HEK-Blue^TM hTLR4 cells (2 × 10^4 cells/well) were seeded in 96-well plates and serum-starved for 24 h at 37 °C in a 5% CO2 atmosphere. After incubation, the culture medium was aspirated, and the cells were washed with saline. High-glucose D-MEM supplemented with 0.1% FBS and 1% penicillin–streptomycin was added and pretreated with or without the 17 limonoids at a concentration of 20 µM for 1 h, followed by LPS addition at a concentration of 10 ng/mL. After 18 h of incubation, a 10% (v/v) CCK-8 solution was added to each well and incubated at 37 °C for 1 h, and cell viability was calculated.

[2] = Cell viability by CCK-8, THP-1 cells; conditions: human, PMA-differentiated THP-1 cells, 10 µM, 18 h
Method: as §1
The THP-1 cells at 5 × 10^4 cells/well were differentiated for 24 h in the presence of PMA (0.5 μM solution in medium). After 24 h of incubation, the culture medium was removed from the 96-well plate and the cells were washed with PBS. Fresh RPMI-1640 medium supplemented with 0.1% FBS and 1% penicillin–streptomycin was added to each well and incubated at 37 °C for overnight. The cells were pretreated with 17 limonoids at the corresponding concentration for 1 h followed by the addition of LPS (10 ng/mL) and incubated at 37 °C for 18 h. Furthermore, CCK-8 solution was added to each well with a final concentration was 10% (v/v) and incubated at 37 °C. After 1 h, the absorbance of each well was measured at […] by using a microplate reader (BioTek Cytation 5 Cell Imaging Multimode Reader). Cell viability was calculated using the following formula: % Cell viability=(Absorbance of sample−Absorbance of Background)/(Absorbance of control−Absorbance of Background)×100 where the absorbance of the sample is the absorbance of cells treated by the compound with or without LPS, the absorbance of the control is the absorbance of LPS (−)-treated cells, and the background absorbance is the absorbance of a well containing only the medium. The results were expressed as 100% cell viability.

in vitro = conditions: mouse
Method: as §1

[3] = Viability Cell (%) HEK-Blue hTLR4 LPS-Induced (10 ng/mL)
[4] = Viability Cell (%) HEK-Blue hTLR4 Without LPS
[5] = LPS 10 ng/mL, read-out: Viability Cell (%) THP-1 LPS-Induced (10 ng/mL)
[6] = without LPS, read-out: Viability Cell (%) THP-1 Without LPS
[7] = RAW264.7 macrophages, 5 µM, read-out: Viability cell (%) RAW 264.7 5 µM
[8] = RAW264.7 macrophages, 10 µM, read-out: Viability cell (%) RAW 264.7 10 µM
[9] = RAW264.7 macrophages, 20 µM, read-out: Viability cell (%) RAW 264.7 20 µM

Structure (SMILES) | viability at 18 h, 20 µM [1, 3] [%] | viability at 18 h, 20 µM [1, 4] [%] | viability at 18 h, 10 µM [2, 5] [%] | viability at 18 h, 10 µM [2, 6] [%] | viability at 5 µM (in vitro) [%] | viability at 10 µM (in vitro) [%] | viability at 20 µM (in vitro) [%] | viability at 5 µM (in vitro; [7]) [%] | viability at 10 µM (in vitro; [8]) [%] | viability at 20 µM (in vitro; [9]) [%] | viability at 18 h, 20 µM ([1]; HEK-Blue hTLR4 cells, 20 µM, 18 h, LPS 10 ng/mL, read-out: Viability Cell (%) HEK-Blue hTLR4 LPS-Induced (10 ng/mL)) [%] | viability at 18 h, 20 µM ([1]; HEK-Blue hTLR4 cells, 20 µM, 18 h, without LPS, read-out: Viability Cell (%) HEK-Blue hTLR4 Without LPS) [%]
CC(=O)O[C@H]1[C@@H](OC(C)=O)[C@@]2(C)C3C(=O)C[C@@H](c4ccoc4)[C@]3(C)CC[C@@H]2[C@@]2(C)C=CC(=O)C(C)(C)[C@H]12 (stereo partly shown) [Compound 7, toonaciliatone F] | 87.3 ± 4 | 92.9 ± 2.11 | > 99.9 | > 99.9 | > 99.9 | > 99.9 | 95.9 ± 2.19 | – | – | – | – | –
COc1cc([C@@H]2c3cc4c(cc3[C@@H](O[C@@H]3O[C@@H]5CO[C@@H](C)O[C@H]5[C@H](O)[C@H]3O)[C@H]3COC(=O)[C@H]23)OCO4)cc(OC)c1O [Etoposide, reference compound] | – | – | – | – | – | – | – | 67.5 ± 2.36 | 54.8 ± 2.58 | 38.9 ± 3.19 | – | –
CC(=O)O[C@H]1[C@@H](OC(C)=O)[C@]2(C)[C@H](CC[C@@]3(C)[C@H](c4ccoc4)C(=O)[C@H]4O[C@@]423)[C@@]2(C)C=CC(=O)C(C)(C)[C@H]12 [Compound 10, 6α-acetylepoxyazadirone] | > 99.9 | > 99.9 | > 99.9 | > 99.9 | 93.2 ± 4.2 | 82.1 ± 1.31 | 86.1 ± 4.07 | – | – | – | – | –
CC1(C)C(=O)C=C[C@]2(C)[C@H]3CC[C@]4(C)C(C(=O)C[C@H]4c4ccoc4)[C@]3(C)[C@H](O)C[C@@H]12 (stereo partly drawn) [Compound 1, 7α-hydroxyneotrichilenone] | > 99.9 | > 99.9 | > 99.9 | > 99.9 | > 99.9 | > 99.9 | > 99.9 | – | – | – | – | –
CC(=O)O[C@H]1[C@@H](OC(C)=O)[C@]2(C)[C@H](CCC3=C(c4ccoc4)C[C@@H](O)[C@]32C)[C@@]2(C)C=CC(=O)C(C)(C)[C@H]12 [Compound 8, toonaciliatone C] | – | – | 94 ± 9.84 | > 99.9 | – | – | – | 89.5 ± 9.38 | 94.75 ± 0.32 | 87.5 ± 3.33 | 88 ± 6.37 | > 99.9
